Assay results as given in PubChem BioAssay AID1963979 (Molecular Pharmacology Branch, DTP, NCI, 2024).
Where “and” joins values, the source holds several entries; their conditions need not be identical. Equal values may be shown once.

System: 361931-004-R-J1-PDC multicell spheroid viability
Experiment: Anticancer human tumor 361931-004-R-J1-PDC patient-derived colon adenocarcinoma cell line growth inhibition [PI3K]
Settings: for viability, T/C: stronger effect = lower value
In short: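 Spheroid viability read-out. Co-cultures contained the tumor line plus HUVEC and human MSCs. Each agent was paired with a PI3K inhibitor (inavolisib, alpelisib, duvelisib, copanlisib) across half-log dilutions starting at clinical Cmax, or at 10 microM when Cmax was unknown.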

[1] = curve of first compound, second compound 0.00316 µM
[2] = curve of first compound, second compound 0.01 µM
[3] = curve of first compound, second compound 0.0316 µM
[4] = curve of first compound, second compound 0.1 µM
[5] = curve of first compound, second compound 0.316 µM
[6] = curve of first compound, second compound 1 µM
[7] = second compound 0.00316 µM, first compound 0.0316 µM
[8] = second compound 0.00316 µM, first compound 0.1 µM
[9] = second compound 0.00316 µM, first compound 0.316 µM
[10] = second compound 0.00316 µM, first compound 1 µM
[11] = second compound 0.00316 µM, first compound 3.16 µM
[12] = second compound 0.00316 µM, first compound 10 µM
[13] = second compound 0.01 µM, first compound 0.0316 µM
[14] = second compound 0.01 µM, first compound 0.1 µM
[15] = second compound 0.01 µM, first compound 0.316 µM
[16] = second compound 0.01 µM, first compound 1 µM
[17] = second compound 0.01 µM, first compound 3.16 µM
[18] = second compound 0.01 µM, first compound 10 µM
[19] = second compound 0.0316 µM, first compound 0.0316 µM
[20] = second compound 0.0316 µM, first compound 0.1 µM
[21] = second compound 0.0316 µM, first compound 0.316 µM
[22] = second compound 0.0316 µM, first compound 1 µM
[23] = second compound 0.0316 µM, first compound 3.16 µM
[24] = second compound 0.0316 µM, first compound 10 µM
[25] = second compound 0.1 µM, first compound 0.0316 µM
[26] = second compound 0.1 µM, first compound 0.1 µM
[27] = second compound 0.1 µM, first compound 0.316 µM
[28] = second compound 0.1 µM, first compound 1 µM
[29] = second compound 0.1 µM, first compound 3.16 µM
[30] = second compound 0.1 µM, first compound 10 µM
[31] = second compound 0.316 µM, first compound 0.0316 µM
[32] = second compound 0.316 µM, first compound 0.1 µM
[33] = second compound 0.316 µM, first compound 0.316 µM
[34] = second compound 0.316 µM, first compound 1 µM
[35] = second compound 0.316 µM, first compound 3.16 µM
[36] = second compound 0.316 µM, first compound 10 µM
[37] = second compound 1 µM, first compound 0.0316 µM
[38] = second compound 1 µM, first compound 0.1 µM
[39] = second compound 1 µM, first compound 0.316 µM
[40] = second compound 1 µM, first compound 1 µM
[41] = second compound 1 µM, first compound 3.16 µM
[42] = second compound 1 µM, first compound 10 µM
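Further: spheroids exposed to agents for seven days before readout.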

`CC1(C)CCC(Nc2ncc(C(F)(F)F)c(-c3c[nH]c4c(P(C)(C)=O)c(C#N)ccc34)n2)CN1` (stereo unspecified) + CC(Nc1ccc2c(c1)OCCn1cc(N3C(=O)OCC3C(F)F)nc1-2)C(N)=O was tested, and the IC50 [1] was 4.25 µM, the IC50 [2] was 4.37 µM and the IC50 [3] was 3.95 µM. It also gave an IC50 [4] of 3.55 µM, an IC50 [5] of 3.63 µM and an IC50 [6] of 2.06 µM. The viability, T/C [7] was 72.1%, the viability, T/C [8] was 78.7% and the viability, T/C [9] was 76.4%. For the same compound, the viability, T/C [10] was 72.6%, the viability, T/C [11] was 66.1% and the viability, T/C [12] was 3.82%. It also gave a viability, T/C [13] of 84.2%, a viability, T/C [14] of 79.8% and a viability, T/C [15] of 75%. For the same compound, the viability, T/C [16] was 77.9%, the viability, T/C [17] was 67.8% and the viability, T/C [18] was 4.66%. The viability, T/C [19] was 78.7%, the viability, T/C [20] was 69.8% and the viability, T/C [21] was 70.8%. It also gave a viability, T/C [22] of 67.1%, a viability, T/C [23] of 62.2% and a viability, T/C [24] of 3.26%. For the same compound, the viability, T/C [25] was 84.2%, the viability, T/C [26] was 72.3% and the viability, T/C [27] was 64.9%. For the same compound, the viability, T/C [28] was 69.5%, the viability, T/C [29] was 57% and the viability, T/C [30] was 3.49%. The viability, T/C [31] was 66.6%, the viability, T/C [32] was 64.2% and the viability, T/C [33] was 61.1%. It also gave a viability, T/C [34] of 68.4%, a viability, T/C [35] of 55.5% and a viability, T/C [36] of 3.54%. It also gave a viability, T/C [37] of 64.5%, a viability, T/C [38] of 52.5% and a viability, T/C [39] of 56.4%. For the same compound, the viability, T/C [40] was 56.7%, the viability, T/C [41] was 46.2% and the viability, T/C [42] was 3.28%.

`CNC(=O)c1ccc(N2C(=S)N(c3ccc(C#N)c(C(F)(F)F)c3)C(=O)C2(C)C)cc1F` + COc1c(OCCCN2CCOCC2)ccc2c3n(c(=NC(=O)c4cnc(N)nc4)nc12)CCN3 showed an IC50 [1] of over 10 µM, an IC50 [2] of over 10 µM and an IC50 [3] of over 10 µM. For the same compound, the IC50 [4] was over 10 µM, the IC50 [5] was 3.98 µM and the IC50 [6] was under 0.0316 µM. The viability, T/C [7] was 103%, the viability, T/C [8] was 102% and the viability, T/C [9] was 97.6%. It also gave a viability, T/C [10] of 103%, a viability, T/C [11] of 105% and a viability, T/C [12] of 88.5%. For the same compound, the viability, T/C [13] was 95.5%, the viability, T/C [14] was 101% and the viability, T/C [15] was 98.8%. It also gave a viability, T/C [16] of 98.2%, a viability, T/C [17] of 98.7% and a viability, T/C [18] of 86.2%. The viability, T/C [19] was 83.6%, the viability, T/C [20] was 92.3% and the viability, T/C [21] was 91.7%. For the same compound, the viability, T/C [22] was 90%, the viability, T/C [23] was 95.7% and the viability, T/C [24] was 88.4%. For the same compound, the viability, T/C [25] was 81.1%, the viability, T/C [26] was 82.5% and the viability, T/C [27] was 76.1%. The viability, T/C [28] was 81.5%, the viability, T/C [29] was 86.1% and the viability, T/C [30] was 65.8%. The viability, T/C [31] was 56.2%, the viability, T/C [32] was 53% and the viability, T/C [33] was 54.1%. For the same compound, the viability, T/C [34] was 57.5%, the viability, T/C [35] was 52.8% and the viability, T/C [36] was 36.7%. It also gave a viability, T/C [37] of 28.7%, a viability, T/C [38] of 22.2% and a viability, T/C [39] of 22.7%. It also gave a viability, T/C [40] of 26.8%, a viability, T/C [41] of 26.5% and a viability, T/C [42] of 17.1%.

In the case of `C[C@@H](NC(=O)c1ncnc(N)c1Cl)c1ncc(C(=O)Nc2cc(C(F)(F)F)c(Cl)cn2)s1`, the viability, T/C (compound 0.0316 µM) is reported as 106% [middle of 4 runs], the viability, T/C (compound 0.1 µM) is reported as 103% and 104% (2×) and 115% and the viability, T/C (compound 0.316 µM) is reported as 107% [middle of 4 runs]. The viability, T/C (compound 1 µM) was 99.6% [middle of 4 runs], the viability, T/C (compound 3.16 µM) was 99.3% [middle of 4 runs] and the viability, T/C (compound 10 µM) was 100% [middle of 4 runs]. The IC50 (curve of compound) was over 10 µM.
